Source: US8227510B2, “Combine use of pterostilbene and quercetin for the production of cancer treatment medicaments” (Universitat de Valencia, priority 2004, dated 2012)
Marks after values point to notes of the source that are not given here.

Key:
B16M-F10 cells / HSE = experiment: HSE-induced cytotoxicity on adhering B16M-F10 cells in vitro; assay type: cell-based, mice; conditions: for Tumor cells Cytotoxicity (% of adhering): t-RESV 12 μM, t-PTER 40 μM, QUER 20 μM, after 6 hours of incubation, none 15 ± 2
Description: C57BL/6J mice were used (male, 10 to 12 weeks old) from IFFA Credo (L'Arbreole, France). The hepatic sinusoidal endothelium (HSE) was separated and identified as described previously (20). The sinusoidal cells were separated in a gradient of 17.5% metrizamide (w/v). The HSE cultures were established and maintained in pyrogen-free DMEM supplemented as described previously for the B16M-F10 cells. Differential adhesion of the endothelial cells to the collagen matrix and washing permitted complete removal of other types of sinusoidal cells (Kupffer's cells, astrocytes, lymphocytes) from the culture flasks.
The B16M-F10 cells were labeled with 2′,7′-bis-(2-carboxyethyl)-5-(and -6)-carboxyfluorescein acetoxymethyl ester (BCECF-AM; Moleculer Probes, Eugene, Oreg., USA) (10^6 cells were incubated for 20 minutes at 37° C. in 1 ml of DMEM buffered with HEPES that contained 50 μg of BCECF-AM and 5 μl of DMSO). After washing, the cells that contained BCECF-AM were resuspended in DMEM buffered with HEPES without phenol red at a concentration of 2.5×10^6 cells/ml and were added (0.2 ml/well) to the endothelial cell culture (seeded 24 hours previously), as well as to wells of plastic and controls previously treated with collagen. The plates were then incubated at 37° C. and, 20 minutes later, the wells were washed three times with fresh medium, and then their fluorescence was read using a Fluoroskan Ascent FL (Labsystems, Manchester, UK). The number of adhering tumor cells was quantified with arbitrary fluorescence units based on the percentage relative to the initial number of B16M-F10 cells added to the HSE culture (20). The damage caused to the B16M-F10 cells during their adhesion in vitro to the HSE was evaluated as described previously (21) using tumor cells labeled with calcein-AM (Molecular Probes, Eugene, Oreg., USA). The integrity of the B16M-F10 cells cultivated on their own was evaluated by exclusion of trypan blue and measuring the lactate dehydrogenase released to the extracellular medium (22). The other reagents used in the tumoral cytotoxicity experiments were from Sigma.
Recombinant murine TNF- (2×10^7 U/mg of protein) and recombinant murine interferon-(IFN-; 10^5 U/mg of protein) were obtained from Sigma. […]
HSE cells, previously cultured for 24 hours [±polyphenol(s), added 12 hours from seeding and removed by washing 60 minutes later], were cocultured with B16M-F10 cells previously cultured for 72 hours [±polyphenol(s), as in FIG. 2]. […] In the tests of endothelium-induced cytotoxicity on the B16M-F10 cells, the tumor damage (expressed as the percentage of tumor cells that lost viability during the incubation period of 4-6 hours, see the methodology) was determined after 6 hours of incubation. […]

B16M-F10 cells = experiment: Inhibition in vitro of the growth of B16M-F10 cells; assay type: cell-based
Procedure: B16M-F10 cells were cultured in Dulbecco's modified Eagle's medium (DMEM; Gibco Labs., Grand Island, N.Y., USA), pH 7.4, supplemented with 10% fetal serum (Gibco), HEPES 10 mM, NaHCO3 40 mM, 100 U/ml of penicillin and 100 μg/ml of streptomycin (20).
The B16M-F10 melanoma, highly aggressive, is a model that is widely used for investigating metastatic spread and tissue invasion (21), and for this reason was chosen for our studies. In the first group of experiments, we studied the effect in vitro of t-PTER+QUER on the growth of B16M-F10 cells. To reproduce the conditions in vivo after i.v. administration, we incubated B16M-F10 cells in the presence of t-PTER (40 μM) and/or QUER (20 μM) for a limited period (60 minutes) (this represents a value that approximates to the average of the concentrations of PTER and QUER measured in the plasma during the first hour after i.v. administration of 20 mg/kg of each polyphenol (FIG. 2). For comparison, we also used t-RESV (12 μM; selection of this concentration was based on a similar criterion, see the data cited in ref. 14). The polyphenols were added to the incubation medium every 24 hours and, as mentioned, they were only present for 60 minutes.
Also for comparison, we incubated B16M-F10 cells in the presence of t-PTER+QUER at concentrations representing an approximate average value of the total level of each polyphenol measured in the plasma in the first hour after oral administration (11 μM of PTER and 1 μM of QUER) (see Table 1). Both polyphenols, as free forms, were constantly present in the incubation medium.
FIG. 2. Inhibition in vitro of the growth of B16M-F10 cells by brief exposure to resveratrol (RESV), pterostilbene (PTER) and/or quercetin (QUER). All the points are mean values±SD corresponding to 5-6 independent experiments. *P<0.05, **P<0.01 compared with the control values.

[1] = t-PTER 40 μM, QUER 20 μM, t-RESV 12 μM, added every 24 hours, present for 60 minutes

| Compound | increase of the death of B16M-F10 cells induced by the HSE (B16M-F10 cells / HSE; brief exposure (60 minutes)) | Tumor cells Cytotoxicity (% of adhering) (B16M-F10 cells / HSE) | effect on growth of B16M-F10 cells at concentrations found after oral administration (B16M-F10 cells; t-PTER 11 μM and/or QUER 1 μM, constantly present in the medium) | inhibition at 20 µM (B16M-F10 cells; [1]) | inhibition of the growth of B16M-F10 (B16M-F10 cells; [1]) | effect of t-RESV on the percentage inhibition of growth promoted by t-PTER+QUER (B16M-F10 cells; t-RESV 12 μM added to t-PTER 40 μM + QUER 20 μM) |
| --- | --- | --- | --- | --- | --- | --- |
| O=c1c(O)c(-c2ccc(O)c(O)c2)oc2cc(O)cc(O)c12 [QUER, quercetin] | ~48% | 52 ± 6** % of adhering | did not have a significant effect | 19% |  |  |
| Oc1ccc(C=Cc2cc(O)cc(O)c2)cc1 [RESV, resveratrol, reference compound] |  | 12 ± 3 % of adhering |  |  | did not have a significant effect | did not significantly affect |
| COc1cc(/C=C/c2ccc(O)cc2)cc(OC)c1 [PTER, pterostilbene] |  | 19 ± 3* % of adhering |  |  | 40% |  |
